From ChEMBL document CHEMBL1147023, “(R)-sila-venlafaxine: a selective noradrenaline reuptake inhibitor for the treatment of emesis” (Bioorg Med Chem Lett, 2006) come the findings set out here.

Structures are written as SMILES. pIC50: −log10 of the molar value. Calls of active or inactive are those of the source.

Data set [1] has as its system Mustela putorius furo. Briefly: Inhibition of morphine-induced emesis in ferret at 5 mg/kg. The class given is functional.
For data set [2], the target named is T1, Voltage-gated L-type calcium channel (Homo sapiens, UniProt Q13936+Q13698+Q01668+O60840). Put plainly: Inhibition of diltiazem sensitive L type calcium channel by radioligand […] assay. The data set is classed as protein assay.
Data set [3] deals with Sodium-dependent noradrenaline transporter (Homo sapiens, UniProt P23975). Briefly: Inhibition of noradrenaline reuptake at human recombinant noradrenaline transporter.
Sodium-dependent noradrenaline transporter, sequence (P23975 whole entry): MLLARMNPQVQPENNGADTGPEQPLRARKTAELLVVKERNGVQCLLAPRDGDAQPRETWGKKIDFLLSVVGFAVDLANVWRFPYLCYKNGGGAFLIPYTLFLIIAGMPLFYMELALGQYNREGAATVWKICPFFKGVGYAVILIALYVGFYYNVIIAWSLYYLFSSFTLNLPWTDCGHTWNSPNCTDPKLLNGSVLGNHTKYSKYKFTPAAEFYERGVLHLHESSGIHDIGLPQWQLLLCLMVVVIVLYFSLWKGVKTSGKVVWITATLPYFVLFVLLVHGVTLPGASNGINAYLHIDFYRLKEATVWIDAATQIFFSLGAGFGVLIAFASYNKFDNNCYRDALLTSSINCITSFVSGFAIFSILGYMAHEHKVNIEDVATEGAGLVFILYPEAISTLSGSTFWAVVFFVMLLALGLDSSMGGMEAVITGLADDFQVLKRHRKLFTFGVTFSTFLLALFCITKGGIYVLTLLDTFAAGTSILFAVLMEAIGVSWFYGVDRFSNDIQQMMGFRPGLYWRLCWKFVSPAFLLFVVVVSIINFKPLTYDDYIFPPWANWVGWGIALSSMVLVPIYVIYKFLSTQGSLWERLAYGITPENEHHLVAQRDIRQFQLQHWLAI
Data set [4] is described as follows: Plasma half life in ferret at 5 mg/kg, po. The class given is ADME, organism-based, Mustela putorius furo. On the set-up: dose 5 mg/kg, route oral.
The subject of data set [5] is Mustela putorius furo. Put plainly: Activity against morphine-induced emesis in ferret at 50 mg/kg. The data set is classed as functional, organism-based. Further details: dose 50 mg/kg.
In data set [6] the test system is Mustela putorius furo. Put plainly: Activity against morphine-induced emesis in ferret at 1 mg/kg. The class given is functional, organism-based. Further details: dose 1 mg/kg.
Data set [7] in a line: Cmax in ferret at 5 mg/kg, po. The data set is classed as ADME, organism-based, Mustela putorius furo. Further details: dose 5 mg/kg, route oral. The settings on record: in vivo.
The target of data set [8] is T1, Voltage-gated L-type calcium channel. Briefly: Inhibition of verapamil sensitive L type calcium channel by radioligand […] assay. The data set is classed as protein assay.
Data set [9] addresses Sodium-dependent serotonin transporter (Homo sapiens, UniProt P31645). Put plainly: Inhibition of serotonin reuptake at human recombinant serotonin transporter.
The nature of data set [10]: Inhibitory activity against site 2 of sodium channel by radioligand […] assay.

Sodium-dependent serotonin transporter, sequence (P31645 whole entry): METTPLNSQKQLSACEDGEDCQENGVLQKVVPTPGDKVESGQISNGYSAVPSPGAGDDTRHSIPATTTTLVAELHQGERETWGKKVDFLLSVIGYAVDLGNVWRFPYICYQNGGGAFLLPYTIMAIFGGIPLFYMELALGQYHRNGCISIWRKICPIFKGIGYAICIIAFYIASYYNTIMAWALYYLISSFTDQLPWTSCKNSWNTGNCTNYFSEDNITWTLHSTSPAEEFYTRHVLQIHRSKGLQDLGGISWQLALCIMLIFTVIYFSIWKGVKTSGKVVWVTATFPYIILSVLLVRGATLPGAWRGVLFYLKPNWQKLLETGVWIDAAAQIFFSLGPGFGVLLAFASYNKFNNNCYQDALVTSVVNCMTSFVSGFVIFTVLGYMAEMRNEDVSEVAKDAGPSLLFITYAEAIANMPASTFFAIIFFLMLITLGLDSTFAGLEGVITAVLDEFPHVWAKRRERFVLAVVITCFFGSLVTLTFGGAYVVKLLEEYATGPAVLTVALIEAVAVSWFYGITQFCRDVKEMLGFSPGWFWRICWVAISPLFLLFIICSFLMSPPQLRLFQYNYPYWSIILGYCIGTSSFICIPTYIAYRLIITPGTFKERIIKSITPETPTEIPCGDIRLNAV

On to `COc1ccc([C@H](CN(C)C)[Si]2(O)CCCCC2)cc1`, for which, in the data set with Mustela putorius furo [1], testing at 5 mg/kg gave an inhibition in vivo of 93%. The IC50 (commonly the concentration needed to halve the response being measured) in data set [2] was 2.7 µM; in data set [8] it was 8.6 µM. In addition, the pIC50 (in general, the IC50 on a negative log10 scale, so that one unit is a factor of ten) in data set [3] was 6.70; in data set [9] it was 5.38; in data set [10] it was 5.29. The half-life (commonly the time needed for the level to fall by half in the phase considered) in [4] is 1.1 h. The outcome in the data set with Mustela putorius furo [5] was Active. The outcome in the data set on Mustela putorius furo [6] was inactive. For the same compound, the Cmax (as a rule, the highest concentration seen after dosing) in data set [7] was determined as 225 ng/mL.
